Reference: US20060199832A1, “Use of non-immunosupressive pipecolic acid derivatives for inducing chondrogenic differentiation” (Astellas Pharma Inc., priority 2003, published 2006)

Tested on: ATDC5 cells
Experiment: Induction of chondrogenic differentiation of ATDC5 cells (Alcian blue staining of proteoglycan)
Format: cell-based
Details: ATDC5 cells incubated for 24 days; compound (1) at 1-10000 ng/ml; results in FIG. 1
Protocol: The inducing activity by the compound (1) on chondrogenic differentiation was evaluated in accordance with the below-mentioned method.
(1) The ATDC5 cell line provided by RIKEN Cell Bank (Tsukuba, Japan) was grown in a 1:1 mixture of Dulbecco's modified Eagle's medium and Ham's F12 medium (Nikken Biomedical Laboratory, Kyoto, Japan) supplemented with 10% heat-inactivated fetal bovine serum (Intergen, Purchase, N.Y.).
(2) The above ATDC5 cells were plated in 12-multiwell plastic plate at a density of 1×10^5 cells/well in the medium. After 4 hr, the medium was replaced with fresh medium containing the compound (1) or Cyclosporin A (CsA), and the culture was continued for a 24 days with medium change every 2 or 3 days. Cells were fixed with methanol and stained 0.1% Alcian blue (Sigma Chemical Co., St. Louis, Mo.) dissolved in 0.1 M hydrochloric acid for 16 hr at room temperature. Cells were then rinsed three times with distilled water, and the amount of cell-associated dye was measured at 620 nm after extraction with 6 M guanidine-HCl (300 μl/well)
ATDC5 cells were incubated with the compound (1) or CsA for 24 days and the amount of proteoglycan was assayed.

Row | Molecule | chondrogenic differentiation (amount of proteoglycan, cell-associated Alcian blue dye measured at 620 nm)
1 | COC1CC(/C=C(\C)C2OC(=O)C3CCCCN3C(=O)C(=O)C3(O)OC(C(OC)CC(C)C/C(C)=C/C(CC(C)=O)C(=O)CC(O)C2C)C(OC)CC3C)CCC1O (centres unmarked) [compound (1)] | induced differentiation into chondrocyte in a concentration-dependent manner
2 | Cyclosporin A [CsA] | did not induce the differentiation
